Data from PMC5622107, “Small molecule inhibition of cGAS reduces interferon expression in primary macrophages from autoimmune mice” (Nature Communications, 2017).
Read-outs that look alike come from different tables or passages of the source.

Biological target: T1, mouse cGAS (Mus musculus, UniProt Q8C6L5)
T1 construct: recombinant full-length mouse cGAS in reaction buffer; His6-SUMO (N, cleaved yes); made in house; host or cells: E. coli BL21(DE3) RIL
Assay: RapidFire mass spectrometry (RF-MS) cGAS enzymatic assay, cGAMP product formation
Format: biochemical
Settings: for IC50: read-out: IC50; for effect of structural modification on cGAS inhibitory potency: compared with RU.365
Experimental: The liquid was collected at the well bottom using centrifugation for 30 s at 180×g. […] Plates were centrifuged for 30 s at 180×g to collect all liquid at the bottom of the wells. […] The reaction was stopped by addition of 65 µl of 0.5% (v/v) formic acid per well. The plates were centrifuged for 30 s at 180×g and sealed with a Velocity11 PlateLoc thermal plate sealer.
The solvent used for loading/washing process was an aqueous solution of 5 mM ammonium acetate, pH 10. […] Each sample of approximately 35 µl were aspirated from a 384-well plate and separated using a Graphitic carbon Type D cartridge. After each sample was loaded onto the cartridge it was washed for 4 s at 1.5 ml min^−1 using the aqueous solvent. ATP, GTP and cGAMP were eluted for 5 s using the organic solvent at a flow rate of 1.5 ml min^−1. The cartridge was then re-equilibrated with the aqueous solvent for 5 s at a flow rate of 1.5 ml min^−1. All samples were analyzed using a negative ionization mode in the mass spectrometer, with a gas temperature of 350 °C, nebulizer pressure of 35 psig, gas flow rate of 15 l min^−1. […] The Agilent RapidFire Integrator software was used to calculate the area under the curve (AUC) of the extracted ion counts for each analyte. Data points represent values of product formation. Catalytic rates expressed as percent product formation were calculated using the AUC of cGAMP and using the AUC’s of ATP and GTP to normalize for variations in the capacity of the solid phase extraction column during a screening run, as shown in the following formula: product formation (%) = [(AUCcGAMP × 100)/(AUCcGAMP + ½ AUCATP + ½ AUCGTP)].
To determine the percent inhibition of mouse cGAS the data was normalized against the positive control (column 24) and negative control (column 23). […] The quality of the screen was assessed by Z′ factor[57] calculated as follows: Z′ = 1−[3∗(standard deviation positive control + standard deviation negative control)/(average positive control—average negative control)].

[1] = Supplementary Table 4, analogs of RU166365, m-cGAS inhibition
[2] = Supplementary Table 3, analogs more potent than RU166365

T1 sequence (Q8C6L5 whole entry): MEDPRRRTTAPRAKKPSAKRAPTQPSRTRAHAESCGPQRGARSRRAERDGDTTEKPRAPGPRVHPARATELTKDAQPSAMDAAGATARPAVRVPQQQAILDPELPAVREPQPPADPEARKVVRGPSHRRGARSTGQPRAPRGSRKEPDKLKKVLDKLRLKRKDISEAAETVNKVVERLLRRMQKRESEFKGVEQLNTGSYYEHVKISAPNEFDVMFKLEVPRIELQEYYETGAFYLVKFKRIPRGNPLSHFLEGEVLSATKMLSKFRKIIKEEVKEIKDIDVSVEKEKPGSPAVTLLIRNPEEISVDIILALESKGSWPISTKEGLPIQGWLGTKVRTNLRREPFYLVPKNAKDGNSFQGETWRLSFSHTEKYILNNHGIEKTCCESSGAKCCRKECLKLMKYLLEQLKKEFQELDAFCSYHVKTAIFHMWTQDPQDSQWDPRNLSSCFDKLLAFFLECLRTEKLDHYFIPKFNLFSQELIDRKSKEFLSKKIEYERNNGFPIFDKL

IC50 [1] [µM]	Structure (SMILES)	other results
> 25	Cc1nn(-c2nc3ccccc3s2)c(O)c1C1NC(=O)c2ccccc21 (stereo not shown) [RU320466]	
	Cc1nn(-c2nc3cccc(Br)c3[nH]2)c(O)c1C1OC(=O)c2ccccc21 (stereo not shown) [RU320467]	IC50 [2]: 0.38 µM; effect of structural modification on cGAS inhibitory potency: increased inhibitory potency
	COc1ccc2c(c1)C(=O)OC2c1c(C)nn(-c2nc3ccccc3[nH]2)c1O (stereo not shown) [RU320468]	IC50 [2]: 1.43 µM; effect of structural modification on cGAS inhibitory potency: only minor variations in potency
	Cc1nn(-c2nc3ccccc3[nH]2)c(O)c1C1OC(=O)c2cc(Br)ccc21 (stereo not shown) [RU320469]	IC50 [2]: 1.32 µM; effect of structural modification on cGAS inhibitory potency: only minor variations in potency
11	Cc1nn(-c2nc3ncccc3[nH]2)c(O)c1C1OC(=O)c2ccccc21 (stereo not shown) [RU320502]	
> 25	COc1cccc2c1C(c1c(C)nn(-c3nc4ccccc4[nH]3)c1O)OC2=O (stereo not shown) [RU320503]	
19.6	Cc1nn(-c2nc3ccccc3[nH]2)c(O)c1C1OC(=O)c2cccc(Br)c21 (stereo not shown) [RU320504]	
6.84	COC(=O)c1cccc2c1C(=O)OC2c1c(C)nn(-c2nc3ccccc3[nH]2)c1O (stereo not shown) [RU320511]	
8.58	COC(=O)c1ccc2c(c1)C(c1c(C)nn(-c3nc4ccccc4[nH]3)c1O)OC2=O (stereo not shown) [RU320512]	
> 25	COC(=O)c1cccc2c1C(c1c(C)nn(-c3nc4ccccc4[nH]3)c1O)OC2=O (stereo not shown) [RU320513]	
> 25	CC(C)c1c(C2OC(=O)c3ccccc32)c(O)nn1-c1nc2ccccc2[nH]1 (stereo not shown) [RU320514]	
7.16	CC(C)c1nn(-c2nc3ccccc3[nH]2)c(O)c1C1OC(=O)c2ccccc21 (stereo not shown) [RU320515]	
> 25	Cc1nn(-c2nc3ccccc3[nH]2)c(O)c1C1OC(=O)c2cccc(C(=O)O)c21 (stereo not shown) [RU320516]	
> 25	CC(=O)N1CCc2c(c(C)nn2-c2nc3ccccc3[nH]2)C1c1ccccc1 (stereo not shown) [RU320517]	
> 25	CC(=O)N1CCc2nn(-c3nc4ccccc4[nH]3)c(C)c2C1c1ccccc1 (stereo not shown) [RU320518]	
	Cc1nn(-c2nc3cccc(C)c3[nH]2)c(O)c1C1OC(=O)c2ccccc21 (stereo not shown) [RU320519]	IC50 [2]: 1.16 µM; effect of structural modification on cGAS inhibitory potency: increased inhibitory potency
	Cc1nn(-c2nc3cccc(Cl)c3[nH]2)c(O)c1C1OC(=O)c2ccccc21 (stereo not shown) [RU320520]	IC50 [2]: 0.62 µM; effect of structural modification on cGAS inhibitory potency: increased inhibitory potency
> 25	Cc1nn(-c2ncc(-c3ccccc3)[nH]2)c(O)c1C1OC(=O)c2ccccc21 (stereo not shown) [RU320574]	
2.35	Cc1nn(-c2nc3cccc(-c4ccccc4)c3[nH]2)c(O)c1C1OC(=O)c2ccccc21 (stereo not shown) [RU320575]	
18	Cc1nn(-c2nc3ccc(C(=O)O)cc3[nH]2)c(O)c1C1OC(=O)c2ccccc21 (stereo not shown) [RU320577]	
3.36	Cc1nn(-c2nc3ccc(-c4ccccc4)cc3[nH]2)c(O)c1C1OC(=O)c2ccccc21 (stereo not shown) [RU320578]	
2.46	COC(=O)Cc1cccc2c1C(=O)OC2c1c(C)nn(-c2nc3ccccc3[nH]2)c1O (stereo not shown) [RU320579]	
3.3	Cc1nn(-c2nc3cccc(C(F)(F)F)c3[nH]2)c(O)c1C1OC(=O)c2ccccc21 (stereo not shown) [RU320581]	
	Cc1nn(-c2nc3cc(Cl)cc(Cl)c3[nH]2)c(O)c1C1OC(=O)c2ccccc21 (stereo not shown) [RU320582]	IC50 [2]: 0.12 µM; effect of structural modification on cGAS inhibitory potency: increased inhibitory potency; improvement in potency (relative to RU.365): 17 fold
